According to US10183273B2, “Absorbent article comprising cyclodextrin complexes” (The Procter & Gamble Company, priority 2016, dated 2019):

Assay: Thiol Vapor Pressure Suppression (TVPS) index, zNose fast GC headspace
Design: key: % reduction in butanethiol headspace peak area vs control
Settings: percentage reduction in butanethiol headspace peak area; 5 μl compound, 37° C. 4 hours
From the text: (§1) Thiol Vapor Pressure Suppression (TVPS) index is a measure of the reduction in butanethiol concentration in the headspace by a compound, as measured using a fast GC instrument, the zNose 7100 (Electronic Sensor Technologies, Newbury Park, Calif.).
as §1, with “Calif.) based on an Surface Acoustic Wave (SAW) Quartz microbalance detector, or equivalent.” for “Calif.).”
Before any measurements the instrument is calibrated according to manufacturer's instructions under the same experimental settings. The instrument has a DB-5 column (also available from Electronic Sensor Technologies, Newbury Park, Calif.) 1 m in length, 0.25 μm phase thickness, and 0.25 mm in diameter.
For analysis, the zNose is programmed with the Sensor Temperature, Inlet Temperature, Valve Temperature, and Initial Column Temperature all set to 40° C. The oven is temperature gradient is programmed at a rate of 10 C°/s from 40° C. to a final temperature of 200° C.
TVPS of a compound is measured in the following way: 100 μl±1 μl of a 1% v/v butanethiol (99%, purity, available from Sigma-Aldrich, St. Louis, Mo.) solution in ethanol (200 proof) is added into a 1 ml vial (8×40 mm). These vials are borosilcate glass straight walled vial. In another 1 ml vial (8×40 mm), 5 μl±0.2 μl of the compound is added. Both open vials are then placed inside a 20 mL headspace vial (22×75 mm), and the vial is immediately sealed using a screw thread closure with PTFE/Silicone septa. The vial is heated to 37° C. for 4 hours. After 4 hours, the vial is removed from the oven and let to equilibrate at 25° C.±2° C. for 15 minutes. The headspace inside the vial is sampled using the zNose is sampled for 10 s and analyzed following the experimental protocol outlined above. Samples with butanethiol alone, and the volatile active alone, are run using the same protocol to identify the peaks for both materials. An acceptable retention index for butanethiol is 720±30. If the peaks butanethiol peak and the volatile material peak co-elute, one skilled in the art can modify the protocol settings to separate those peaks to achieve a minimum resolution of 1.5. For example one can change the column temperature ramp rate. In between samples, the instrument needs to be cleaned to remove any trace materials. To clean the instrument, the instrument is run without samples as needed until no peaks greater than 100 counts are observed.
The amount of butanethiol in the headspace is measured from the area of the peak on the chromatograph for butanethiol (ABtSH,Rx). To calculate the percentage of butanethiol reduction in the headspace, a control with the butanethiol solution without the volatile material is run in the same manner and the area is measured as well (ABtSH,C). TVPS is then measured as the percentage reduction in butanethiol area calculated using the following formula: […]

SMILES | TVPS
Cc1ccc(C=O)s1 [5-methyl-2-thiophene-carboxaldehyde] | 67.4
C=CC(C)CCC=C(C)CCC=O (stereo not drawn) [Floral Super] | 52.4
CC(C)c1cccc(C(C)CC=O)c1 (stereo not drawn) [Florhydral] | 53.3
CCCCCCC(C=O)=Cc1ccccc1 [Hexylcinnamic aldehyde] | 8.0
CC(C)=CCCC(C)CCCC(C)C=O (stereo not drawn) [adoxal] | 24.4
CC1=CC(C)C(C=O)CC1 (stereo not drawn) [ligustral] | 42.5
CC(C)=CCCC(C)C=O (stereo not drawn) [melonal] | 20.4
CC(C)=CCC/C(C)=C\C=O [neral] | 17.1
CCC/C=C/C=O [trans-2-hexenal] | 27.1
